# Like-named read-outs stand apart in the source and are kept apart here.
# How the values were obtained:
# [1] = test system: Kornkäfer (sitophilus granarius L); assay: whole plant or invertebrate; assay type: in vivo; conditions: for % Wirkung Substanz +Ripcord / % Wirkung Substanz +Talcord: 180 min; for mortality at 100 µg/mL: amine 0,1 mg/ml (as for Pyrethroid : Amin 1 : 10)
# In short: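 Acetone solutions (2 ml) were dried as films in 15 cm Petri dishes and 25 grain weevils added per dish, with a filter inserted after 1 h. Dead beetles were counted at 3 h at 19–21 °C, and % mortality and the synergistic factor were derived.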
# [2] = Acute oral toxicity, single oral application, 14 day LD50; set-up: species or system SPF-Wistar-Ratten; conditions: rat, in vivo, read-out: 14 Tage LD50
# From the text: Die erfindungsgemäßen Verbindungen haben nur eine geringe Toxizität. Es wurde die akute, orale Toxizität von Phenyl-N-piperidino-essigsäure-ethylester und 1-N-Undecyl-piperidin bestimmt. Die Tests wurden mit SPF-Wistar-Ratten durchgeführt und die Wirkstoffe einmal oral appliziert.
# Drosophila melanogaster = assay: whole plant or invertebrate; assay type: in vivo
# From the text: Die insektiziden Wirkungen von tertiären heterocyclischen Aminen und die synergistischen Eigenschaften mit dem Phosphorsäureester Dimethoat und dem Carbamat Dimetilan, getestet an Drosophila melanogaster.
# Die Versuche wurden in Petrischalen von 10 cm Durchmesser ausgeführt. Es wurden zunächst die gerade noch wirksamen Konzentrationen von Dimethoat und Dimetilan bestimmt. Für Dimethoat wurde 0,005 % und für Dimetilan 0,0001 % als günstige Versuchskonzentration ermittelt. Die Aminkomponente wurde mit 1 ml 0,05%iger Lösung + 1 ml Aceton auf insektizide Wirkung getestet. Zur Bestimmung des Synergismus wurde 1 ml 0,05%ige Aminlösung + 1 ml 0,005.%ige Dimethoatlösung, bzw. + 1 ml 0,0001%ige Dimetilanlösung pro Petrischale eingesetzt. Alle Verdünnungen wurden mit Aceton als Lösungsmittel hergestellt.
# In den Petrischalen wurden die Lösungen am Boden gut verteilt und 30 min lang antrocknen lassen. In jede Petrischale wurden 20 mit Kohlendioxid betäubte Drosophila eingezählt. Alle 5 min, insgesamt 12 mal, wurde die Anzahl der toten Drosophila ausgezählt und notiert. Die Zahlen wurden aufsummiert und im Verhältnis zur möglichen Zahl an toten Drosophila in % angegeben, wobei der Tot aller Drosophila innerhalb der ersten 5 min 100 % Wirkung entspricht. Jeder Versuch wurde mit 3 Wiederholungen durchgeführt. In Tabelle 1 sind die Mittelwerte der Ergebnisse zusammengestellt.
# Zur Ermittlung des synergistischen Faktors wurden die Einzelwerte pro Zeiteinheit durch die für Dimethoat, bzw. Dimetilan für die jeweilige Zeiteinheit gefundenen Werte dividiert. Die Werte für jede Zeiteinheit wurden summiert und durch die Anzahl der Zeiteinheiten dividiert. Die Versuche wurden bei sonst stets gleichbleibenden Bedingungen bei Temperaturen von 20 - 22°C ausgeführt. Die Kontrollversuche zeigten bei Versuchsabschluß stets 0 % Mortalität. Hat die Substanz selbst eine insektizide Wirkung, so wurden die Wirkungsfaktoren für Dimethoat und Dimetilan nach Abzug des Substanzwertes berechnet und in der Tabelle aufgeführt.
# Im Beispiel 1 war das Verhältnis von Insektizid und erfindungsgemäßem Amin 1 : 10 in den Gemischen mit Dimethoat. In der Tabelle 2 sind Verhältnisse von 1 : 1, 1 : 2 und 1 : 0,2 bei Versuchen mit Dimethoat aufgeführt, dabei wurde das Dimethoat immer in einer Konzentation von 0,005 % eingesetzt. Die Tabelle zeigt, daß auch bei diesen Verhältnissen noch eine gute synergistische Wirkung vorhanden ist, und es keineswegs einer großen überdosierung des Amins bedarf.
# [3] = Pyrethroid : Amin 1 : 10, amine 0,1 mg/ml
# [4] = Sitophilus granarius, 3 h, read-out: % Wirkung Substanz allein
# [5] = 1 ml 0,05%ige amine solution + 1 ml 0,0001%ige Dimetilan solution
# [6] = 1 ml 0,05%ige amine solution + 1 ml 0,005 %ige Dimethoat solution (Dimethoat : amine 1 : 10)
# [7] = Drosophila melanogaster, 1 ml 0,05%ige amine solution + 1 ml Aceton per dish, 20 flies, dead counted every 5 min, 12 times, mean values, read-out: Wirksamkeit in % Substanz allein
# [8] = amine 0,05 % + Dimethoat 0,005 %, calculated after subtracting the amine's own effect
# [9] = sitophilus granarius, in vivo, 3 h
# [10] = drosophila melanogaster, in vivo
# [11] = amine 1 mg/ml + Ripcord 0,01 mg/ml
# [12] = amine 1 mg/ml + Talcord 0,01 mg/ml
# [13] = amine 1 mg/ml in Aceton mixed 1 : 1 with Aceton, 2 ml per dish, 25 weevils, dead counted after 3 h
# [14] = amine 1 mg/ml mixed 1 : 1 with Ripcord 0,01 mg/ml, 3 h
# [15] = amine 1 mg/ml mixed 1 : 1 with Talcord 0,01 mg/ml, 3 h
# [16] = 1 ml 0,05%ige amine solution + 1 ml Aceton per dish, 20 flies, dead counted every 5 min, 12 times, mean values
# [17] = amine 0,05 % + Dimetilan 0,0001 %, calculated after subtracting the amine's own effect
# [18] = Pyrethroid : Amin 1 : 5, amine 0,05 mg/ml
structure (smiles),measurement,setting,value
CCOC(=O)C(c1ccccc1)N1CCCCC1 (centres unmarked) [Phenyl-N-piperidino-essigsäure-ethylester],Synergistischer Faktor bei Ripcord,[1]; Pyrethroid : Amin 1 : 10,"3,14"
same,Synergistischer Faktor bei Talcord,[1]; Pyrethroid : Amin 1 : 10,"5,24"
same,% Wirkung Substanz +Ripcord,[1]; [3],"98,8%"
same,% Wirkung Substanz +Talcord,[1]; [3],"50,8%"
same,mortality at 100 µg/mL,[1]; [4],0%
same,LD50 at 336 h,[2]; männliche Ratten,9750 mg/kg
same,LD50 at 336 h,[2]; weibliche Ratten,8170 mg/kg
same,Wirksamkeit in % Substanz +Dimeti-lan,Drosophila melanogaster; [5],"2,7%"
same,Wirksamkeit in % Substanz +Dimethoat,Drosophila melanogaster; [6],"22,2%"
same,mortality at 0.05 %,Drosophila melanogaster; [7],0%
same,mortality at 0.01 %,"Drosophila melanogaster; Drosophila melanogaster, amine 0,01 %, read-out: Sub-stanz allein",0%
same,mortality at 0.05 %,"Drosophila melanogaster; Drosophila melanogaster, amine 0,05 %, read-out: Sub-stanz allein",0%
same,Substanz + Dime-thoat,"Drosophila melanogaster; amine 0,01 % + Dimethoat 0,005 %, Dimethoat : Amin 1 : 2","59,2%"
same,Faktor der Wirkungs-steigerung,"Drosophila melanogaster; amine 0,01 %, Dimethoat : Amin 1 : 2","6,88"
same,Substanz + Dime-thoat,"Drosophila melanogaster; amine 0,05 % + Dimethoat 0,005 %, Dimethoat : Amin 1 : 10","22,1%"
same,Faktor der Wirkungssteigerung bei Dime-methoat,Drosophila melanogaster; [8],"2,57"
same,Faktor der Wirkungs-steigerung,"Drosophila melanogaster; amine 0,05 %, Dimethoat : Amin 1 : 10","2,57"
CCCCOC(CN1CCOCC1)OCCCC [2-N-Morpholino-ethyl-di-butyl-acetal],Synergistischer Faktor bei Ripcord,[1]; in vivo,"3,17"
same,Synergistischer Faktor bei Talcord,[1]; in vivo,"10,31"
same,Wirksamkeit in % Substanz +Ripcord,[1]; [9],100%
same,Wirksamkeit in % Substanz +Talcord,[1]; [9],100%
same,Wirksamkeit in % Substanz allein,[1]; [9],0%
same,Wirksamkeit in % Substanz +Dimethoat,Drosophila melanogaster; [10],"17,9%"
same,Wirksamkeit in % Substanz +Dimeti-lan,Drosophila melanogaster; [10],"3,3%"
same,Wirksamkeit in % Substanz allein,Drosophila melanogaster; [10],"0,4%"
same,Faktor der Wirkungssteigerung bei Dime-methoat,Drosophila melanogaster; in vivo,"2,03"
same,Faktor der Wirkungssteigerung bei Dimi-tilan,Drosophila melanogaster; in vivo,"1,16"
C=CC(C)(CCC=C(C)C)N1CCOCC1 (centres unmarked) [N-1-Linalyl-morpholin],Synergistischer Faktor bei Ripcord,[1]; [11],"2,92"
same,Synergistischer Faktor bei Talcord,[1]; [12],"3,42"
same,Wirksamkeit in % Substanz allein,[1]; [13],0%
same,Wirksamkeit in % Substanz +Ripcord,[1]; [14],"92,0%"
same,Wirksamkeit in % Substanz +Talcord,[1]; [15],"33,2%"
same,Wirksamkeit in % Substanz +Dimeti-lan,Drosophila melanogaster; [5],"20,0%"
same,Wirksamkeit in % Substanz +Dimethoat,Drosophila melanogaster; [6],"30,8%"
same,Wirksamkeit in % Substanz allein,Drosophila melanogaster; [16],"11,7%"
same,Faktor der Wirkungssteigerung bei Dime-methoat,Drosophila melanogaster; [8],"2,22"
same,Faktor der Wirkungssteigerung bei Dimi-tilan,Drosophila melanogaster; [17],"3,32"
CCOC(=O)CC(C(=O)OCC)N1CCCCC1 (centres unmarked) [N-Piperidino-bernstein-säure-di-ethylester],Synergistischer Faktor bei Ripcord,[1]; [11],"3,08"
same,Synergistischer Faktor bei Talcord,[1]; [12],"2,47"
same,Wirksamkeit in % Substanz allein,[1]; [13],0%
same,Wirksamkeit in % Substanz +Ripcord,[1]; [14],"97,2%"
same,Wirksamkeit in % Substanz +Talcord,[1]; [15],"24,0%"
same,Wirksamkeit in % Substanz +Dimeti-lan,Drosophila melanogaster; [5],"2,3%"
same,Wirksamkeit in % Substanz +Dimethoat,Drosophila melanogaster; [6],"38,8%"
same,Wirksamkeit in % Substanz allein,Drosophila melanogaster; [16],0%
same,Faktor der Wirkungssteigerung bei Dime-methoat,Drosophila melanogaster; [8],"4,51"
CCCCCCCCCCCN1CCCCC1 [N-1-Undecyl-piperidin],% Wirkung Substanz +Ripcord,[1]; [18],"90,8%"
same,% Wirkung Substanz +Talcord,[1]; [18],"53,2%"
same,% Wirkung Substanz +Ripcord,[1]; [3],"97,2%"
same,% Wirkung Substanz +Talcord,[1]; [3],"60,0%"
same,mortality at 100 µg/mL,[1]; [4],0%
same,mortality at 50 µg/mL,"[1]; Sitophilus granarius, 3 h, amine 0,05 mg/ml (as for Pyrethroid : Amin 1 : 5), read-out: % Wirkung Substanz allein",0%
same,LD50 at 336 h,[2]; männliche Ratten,593 mg/kg
same,LD50 at 336 h,[2]; weibliche Ratten,493 mg/kg
CCCCOCCOCCN1CCOCC1 [N-(2'-Butoxi-diethylether-(2))-morpholin],Synergistischer Faktor bei Ripcord,[1]; in vivo,"2,96"
same,Synergistischer Faktor bei Talcord,[1]; in vivo,"8,12"
same,Wirksamkeit in % Substanz +Ripcord,[1]; [9],"93,2%"
same,Wirksamkeit in % Substanz +Talcord,[1]; [9],"78,8%"
same,Wirksamkeit in % Substanz allein,[1]; [9],0%
same,Wirksamkeit in % Substanz +Dimethoat,Drosophila melanogaster; [10],"12,9%"
same,Wirksamkeit in % Substanz +Dimeti-lan,Drosophila melanogaster; [10],"3,5%"
same,Wirksamkeit in % Substanz allein,Drosophila melanogaster; [10],"1,7%"
same,Faktor der Wirkungssteigerung bei Dime-methoat,Drosophila melanogaster; in vivo,"1,30"
"C(CCCCN1CCOCC1)CCCN1CCOCC1 [1,8-N,N-Dimorpholino-octan]",Synergistischer Faktor bei Ripcord,[1]; [11],"1,56"
same,Wirksamkeit in % Substanz allein,[1]; [13],"44,0%"
same,Wirksamkeit in % Substanz +Ripcord,[1]; [14],"93,2%"
same,Wirksamkeit in % Substanz +Talcord,[1]; [15],"50,8%"
same,Wirksamkeit in % Substanz +Dimeti-lan,Drosophila melanogaster; [5],"10,4%"
same,Wirksamkeit in % Substanz +Dimethoat,Drosophila melanogaster; [6],"23,8%"
same,Wirksamkeit in % Substanz allein,Drosophila melanogaster; [16],"1,3%"
same,Faktor der Wirkungssteigerung bei Dime-methoat,Drosophila melanogaster; [8],"2,62"
same,Faktor der Wirkungssteigerung bei Dimi-tilan,Drosophila melanogaster; [17],"3,64"
CCCCCCCCCCN1CCCC1 [N-1-Decyl-pyrrolidin],mortality at 1000 µg/mL,"[1]; Sitophilus granarius, amine 1 mg/ml in Aceton mixed 1 : 1 with Aceton, 2 ml per dish, 25 weevils, dead counted after 3 h, read-out: Wirksamkeit in % Substanz allein",81.6%
same,Synergistischer Faktor bei Talcord,[1]; [12],"1,90"
same,Wirksamkeit in % Substanz +Ripcord,[1]; [14],"100,0%"
same,Wirksamkeit in % Substanz +Talcord,[1]; [15],"100,0%"
same,Wirksamkeit in % Substanz +Dimeti-lan,Drosophila melanogaster; [5],"4,8%"
same,Wirksamkeit in % Substanz +Dimethoat,Drosophila melanogaster; [6],"17,1%"
same,mortality at 0.05 %,Drosophila melanogaster; [7],2.9%
same,Faktor der Wirkungssteigerung bei Dime-methoat,Drosophila melanogaster; [8],"1,65"
C=CC(C)(CCC=C(C)C)N1CC1 (centres unmarked) [N-1-Linalyl-aziridin],Synergistischer Faktor bei Ripcord,[1]; [11],"2,99"
same,Synergistischer Faktor bei Talcord,[1]; [12],"6,72"
same,Wirksamkeit in % Substanz allein,[1]; [13],0%
same,Wirksamkeit in % Substanz +Ripcord,[1]; [14],"97,2%"
same,Wirksamkeit in % Substanz +Talcord,[1]; [15],"65,2%"
same,Wirksamkeit in % Substanz +Dimeti-lan,Drosophila melanogaster; [5],"0,42%"
same,Wirksamkeit in % Substanz +Dimethoat,Drosophila melanogaster; [6],"21,7%"
same,Wirksamkeit in % Substanz allein,Drosophila melanogaster; [16],0%
same,Faktor der Wirkungssteigerung bei Dime-methoat,Drosophila melanogaster; [8],"2,67"

# From patent EP0029617A1, “Use of tertiary heterocyclic amines as synergists in pesticides; derivatives of cycloamines” (priority 1979, dated 1981)
